Laboratory results published in US20260124244A1, “MEGAKARYOCYTE DERIVATIVES FOR TREATMENT OF DRY EYE DISEASES” (Stellular Bio, Inc., priority 2023, published 2026).

Key:
[1] = tested on: human corneal epithelial (HCE-T) cells; experiment: HCE-T cell proliferation, xCELLigence RTCA cell index; assay type: cell-based; details: 72-hour time course; EGF 30.4 pg/ml to 31.2 ng/ml; MLC lysates 0.025-0.75% (v/v) (high speed centrifugation) or 0.22 μm filtered
Description: Effect of MLC lysate on proliferation of human corneal epithelial (HCE-T) cells was measured. Briefly, HCE-T cells were plated on to E-Plate 96 (Agilent Technologies, Santa Clara, CA) at 2,500 cells per well in minimal KGM-Gold medium (Lonza, Walkersville, MD). Minimal KGM-Gold medium contains all KGM-Gold BulletKit components except for EGF (positive control), MLC lysates, and/or bovine pituitary extract. For negative control vehicle only, phosphate buffer solution (PBS) was used. After 24 hours, cells were treated with indicated concentrations of MLC lysates, EGF (SinoBiological Inc., Beijing, China) or PBS. The E-plate was then returned to the xCELLigence RTCA instrument for data collection for an additional 48 hours. Area under the curve (AUC) of normalized Cell Index was calculated using RTCA Software Pro and then normalized to vehicle. FIG. 10A illustrates results of a 72-hour time course study of effects of EGF on proliferation of HCE-T cells at a concentration ranging from 30.4 pg/ml to 31.2 ng/ml. FIG. 10B is an alternate representation of FIG. 10A showing normalized area under curved of normalized cell index for each concentration. […] FIG. 11A illustrates results of a 72-hour time course study of effects of MLC Lysates processed with high speed centrifugation on the proliferation of HCE-T cells at a dose ranging from 0.025% (v/v) to 0.75% (v/v). […]

[2] = tested on: rat medial meniscal tear (MMT) model of osteoarthritis (OA); experiment: Joint histology in rat MMT osteoarthritis model; assay type: in vivo; details: day 28 after surgery
Description: (§1) In vivo effect of MLC lysate and PLC in a subject having osteoarthritis was measured. A rat medial meniscal tear (MMT) model of osteoarthritis (OA) was used in an in vivo study for testing efficacy of megakaryocyte derivatives. […] As described in FIG. 13A, Lewis rats were subjected to meniscal tear surgery on day 0. Dynamic weight bearing and electronic Von Frey Filament analyses were conducted at 7, 14, 21 and 28 days following surgery. Subjects were administered with MLC lysates or PLCs by intraarticular injection after DWB and EVFF analysis on days 7, 14 and 21 following surgery. On day 28 following surgery, serum was collected, and animals were sacrificed to allow for joint histology. PRP and recombinant human FGF-18 were used as positive controls. For negative control vehicle only was used. In sum, the study comprised the following groups: No surgery (n=5), MMT Surgery+Vehicle (n=15), MMT Surgery+Platelet-like cells (n=15), MMT Surgery+Platelet-rich plasma (n=15), MMT Surgery+rFGF-18 (n=15), and MMT Surgery+MLC Lysate (n=15).
As outlined in FIG. 13A, a histological analysis of test subjects was performed 28 days following the surgery. […] Additionally, synovitis score wad medial tibial osteophyte measurement was performed based on analysis of histological data.

[3] = tested on: rat medial meniscal tear (MMT) model of osteoarthritis (OA); experiment: Electronic Von Frey Filament test in rat MMT osteoarthritis model; assay type: in vivo; details: intraarticular injection on days 7, 14 and 21 after surgery; compared to vehicle
Description: as §1
(§2) FIGS. 13B and 13C illustrate efficacy results of MLC lysate and PLC in the rat medial meniscal tear model of osteoarthritis using dynamic weight bearing test and electronic Von Frey Filament test, respectively.

[4] = tested on: rat medial meniscal tear (MMT) model of osteoarthritis (OA); experiment: Dynamic weight bearing test in rat MMT osteoarthritis model; assay type: in vivo; details: intraarticular injection on days 7, 14 and 21 after surgery; tested days 7-28
Description: as §1, §2

Substance | proliferation of HCE-T cells (AUC of normalized Cell Index, normalized to vehicle) [1] | medial tibial osteophyte measurement compared to vehicle [2] | substantial cartilage degeneration width compared to vehicle [2] | synovitis score compared to vehicle [2] | electronic von Frey filament thresholds [3] | pain profile in dynamic weight bearing testing [4]
EGF: EGF (SinoBiological Inc.) used as positive control for HCE-T proliferation (NSDSECPLSHDGYCLHDGVCMYIEALDKYACNCVVGYIGERCQYRDLKWWELR; Epidermal growth factor; UniProt P01133 971-1023, looked up) | promotes corneal epithelial cell proliferation in a dose-dependent manner | – | – | – | – | –
recombinant human FGF-18: recombinant human FGF-18 used as positive control in the rat MMT model | – | resulted in a significant increase | significant reduction compared to vehicle treatment | significant increase in synovitis score | significant decrease in thresholds | progressive increasing signal over time
